A short description of series [1]: Thermal stability test: open dish in thermostatted oven, decomposition products (DKP, AP) by hplc. The series is classed as physicochemical. The conditions noted are these: for DKP content: initial content, relative to dry product. As to the method:
d. Thermal stability tests were conducted by allowing samples of a relevant product to stand for the indicated times in an open dish placed in a thermostatted oven at the relevant temperature, and to determine, via hplc, the concentrations of possible decomposition products such as, in the case of analysis of aspartame salts, diketopiperazine (DKP) and aspartyl-phenylalanine (AP) in the initial and the final sample.
(§1) A number of the products obtained in the above-mentioned experiments and comparative experiments were subjected to further analysis of characterization. The following values were determined: (a) thermal stability (at 70° C. and/or at 120° C.) and (b) dissolution rate. By way of comparison the same was done for a number of reference substances. As regards the thermal stability of the APM containing substances, attention was paid in particular to the increase in the diketopiperazine decomposition product (DKP) in wt.% relative to the dry product.

Series [2] in a line: Moisture content, Karl-Fischer water determination. It is filed as physicochemical. The following applies: dried product. As to the method:
b. The moisture content of the products obtained was determined by means of the Karl-Fischer water determination.

The next series in a line: Solubility in water. It is filed as physicochemical. The conditions noted are these: aqueous reaction medium.
For series [3] the following is noted: usual moisture content of the individual component; cited from earlier work.
The conditions of series [4]: general statement, aspartame or its derivatives; cited from earlier work.
Series [5] can be described thus: Dissolution rate, spectrophotometric dissolution curve in pH 5.0 buffer. It is filed as physicochemical. The following applies: 23° C. As to the method:
c. The dissolution rate was found through spectrophotometric determination of the dissolution curve, by introducing 0.1 wt.% of the product (or a screen fraction thereof at 23° C. into a pH 5.0 buffer (Merck titrisol, pH 5.0, in 1 liter of Milli-Q water) whilst stirring continuously.
as §1, with “product. It was also established that the salts included in the table are not hygroscopic.” for “product.”

Data on 23 molecules can be found in US5827562A, “Sweetener salts” (Holland Sweetener Company V.o.F., priority 1995, dated 1998).

Each structure is given as a SMILES string. Where “and” joins values, the source holds several entries; their conditions need not be identical. Equal values may be shown once. Where a name gives a salt, the structure may show the parent alone. Read-outs that look alike come from different tables or passages of the source. Peptide text beside a SMILES is read from it.

Regarding `CC1=CC(=O)NS(=O)(=O)O1` [AceH], the “thermal stability, observation in words” value in series [1] (1 hour, 120° C.) is given as “yellow/orange colour; strong degradation; hydrogen sulphide odour”.
With `COC(=O)[C@H](Cc1ccccc1)NC(=O)[C@@H](N)CC(=O)O` [exp. 1b., 1:1 salt of APM and CycH] (H-Asp-Phe-OMe), the “Increase in DKP content” value in series [1] (1 hour, 120° C.) stood at 0.14 wt. %. In series [1], this molecule yielded a DKP content of 0.18 wt. %. The values for the moisture content in series [2] and in series [2] (table 1) were 0.16% and 0.16 wt. %, respectively. Also, the “solubility of the sweetening salt” value in “Solubility in water” is “high solubility”.
`O=S(=O)(O)NC1CCCCC1` [cyclamate-Ca]: the moisture content entry in series [3] is “up to 9%”.
Consider `COC(=O)[C@H](Cc1ccccc1)NC(=O)[C@@H](N)CC(=O)O` [APM, Δ-L-aspartyl-L-phenylalanine methyl ester] (H-Asp-Phe-OMe), for which, in series [4], the thermal stability result was “relatively unfavorable thermal stability”.
Turning to `COC(=O)[C@H](Cc1ccccc1)NC(=O)[C@@H](N)CC(=O)O.O=C1NS(=O)(=O)c2ccccc21` [comp. exp. 1A, 1:1 salt of APM and SacH] (H-Asp-Phe-OMe), in series [1] (70 hours, 70° C.), the “Increase in DKP content” value is reported as 0 wt. %. In addition, the DKP content in series [1] worked out at 0.53 wt. %.
Consider `O=C1NS(=O)(=O)c2ccccc21` [saccharin-Na, sodium 2,3-dihydro-3-oxobenzisosulfonazole], for which, in series [3], the moisture content result was “up to 15%”.
`CC1=CC(=O)NS(=O)(=O)O1.COC(=O)[C@H](Cc1ccccc1)NC(=O)[C@@H](N)CC(=O)O` [Exp. 3a, 1:1 salt of APM and acesulfamic acid] (H-Asp-Phe-OMe): the moisture content in series [2] was found to be 2.5%.
As for `COC(=O)[C@H](Cc1ccccc1)NC(=O)[C@@H](N)CC(=O)O` [APM granulate, reference compound] (H-Asp-Phe-OMe), the “Increase in DKP content” value in series [1] (1 hour, 120° C.) worked out at 2.09 wt. %; in series [1] (70 hours, 70° C.), 0.75 wt. %. The same molecule had a DKP content in series [1] of 0.18 wt. %. Further, the Dissolution rate in series [5] (200-700 μm fraction, 0.1 wt.%) is 7 min; in series [5] (<200 μm fraction, 0.1 wt.%), 4 min. In series [2] (table 1), this molecule yielded a moisture content of 2.30 wt. %.
`CC1=CC(=O)NS(=O)(=O)O1.COC(=O)[C@H](Cc1ccccc1)NC(=O)[C@@H](N)CC(=O)O` [Experiment 6, 1:1 salt of APM and acesulfamic acid] (H-Asp-Phe-OMe): in series [2], the moisture content was 0.15%.
Still for that read-out and setting: the same measure for `CC1=CC(=O)NS(=O)(=O)O1.COC(=O)[C@H](Cc1ccccc1)NC(=O)[C@@H](N)CC(=O)O` [Exp. 2k, 1:1 salt of APM and acesulfamic acid] (H-Asp-Phe-OMe): 0.10%; for `COC(=O)C(Cc1ccccc1)NC(=O)C(N)CC(=O)O.O=C1NS(=O)(=O)c2ccccc21` (stereo not drawn) [Exp. 4b., 1:1 salt of APM and saccharin] (H-Asp-Phe-OMe; configuration not given here): 0.04% and 0.05%.
As to `COC(=O)[C@H](Cc1ccccc1)NC(=O)[C@@H](N)CC(=O)O.O=C1NS(=O)(=O)c2ccccc21` [exp. 1a., 1:1 salt of APM and SacH] (H-Asp-Phe-OMe), the “Increase in DKP content” value in series [1] (1 hour, 120° C.) turned out to be 0 wt. %; in series [1] (70 hours, 70° C.), 0 wt. %. In series [1], this molecule returned a DKP content of 0.01 wt. %. The Dissolution rate in series [5] (0.1 wt.% product, stirring) was 1 min. Besides, the values for the moisture content in series [2] and in series [2] (table 1) were 0.03% and 0.03 wt. %, respectively.
In series [2], `COC(=O)C(Cc1ccccc1)NC(=O)C(N)CC(=O)O.O=C1NS(=O)(=O)c2ccccc21` (stereo not drawn) [Exp. 3b, 1:1 salt of APM and saccharinate] (H-Asp-Phe-OMe; configuration not given here) displayed a moisture content of 0.27%.
In the case of `CC1=CC(=O)NS(=O)(=O)O1.COC(=O)[C@H](Cc1ccccc1)NC(=O)[C@@H](N)CC(=O)O` [exp. 4c., 1:1 salt of APM and acesulfamic acid] (H-Asp-Phe-OMe), the “Increase in DKP content” value is 0 wt. % in series [1] (1 hour, 120° C.) and 0 wt. % in series [1] (70 hours, 70° C.). Besides, in series [1] (1 hour, 120° C.), the “thermal stability, observation in words” value was “fully stable, white product”. The molecule also came in with a DKP content in series [1] of 0.01 wt. %. Besides, in series [5] (0.1 wt.% product, stirring), the Dissolution rate was 1 min. In addition, the moisture content is given as 0.04% in series [2] and 0.04 wt. % in series [2] (table 1).
In series [2], `CC1=CC(=O)NS(=O)(=O)O1.COC(=O)[C@H](Cc1ccccc1)NC(=O)[C@@H](N)CC(=O)O` [Exp. 5a., 1:1 salt of APM and acesulfamic acid] (H-Asp-Phe-OMe) had a moisture content of 0.09%.
`COC(=O)[C@H](Cc1ccccc1)NC(=O)[C@@H](N)CC(=O)O` [APM powder] (H-Asp-Phe-OMe): the “Increase in DKP content” value in series [1] (1 hour, 120° C.) stood at 2.34 wt. %; in series [1] (70 hours, 70° C.) it was 0.20 wt. %. In series [1], this molecule gave a DKP content of 0.04 wt. %. This molecule also registered a Dissolution rate in series [5] (0.1 wt.% product, stirring) of 2 to 3 min. For the same molecule, the moisture content in series [2] (table 1) is recorded as 2.60 wt. %.
On to `CC1=CC(=O)NS(=O)(=O)O1.COC(=O)[C@H](Cc1ccccc1)NC(=O)[C@@H](N)CC(=O)O` [comp. exp. 1D, 1:1 salt of APM and acesulfamic acid] (H-Asp-Phe-OMe), for which the “Increase in DKP content” value was found to be 2.18 wt. % in series [1] (1 hour, 120° C.) and 0.52 wt. % in series [1] (70 hours, 70° C.). Moreover, the “thermal stability, observation in words” value in series [1] (1 hour, 120° C.) is “yellow/yellowbrown colour, with some degradation of the Ace part”; in series [1] (70 hours, 70° C.), “pale yellow; with hplc some degradation of the Ace part”. Further, in series [1], the DKP content is given as 0.32 wt. %. Moreover, the moisture content came out at 0.89% in series [2] and 0.89 wt. % in series [2] (table 1).
For `CC1=CC(=O)NS(=O)(=O)O1.COC(=O)[C@H](Cc1ccccc1)NC(=O)[C@@H](N)CC(=O)O` [Exp. 2l, 1:1 salt of APM and acesulfamic acid] (H-Asp-Phe-OMe), the moisture content in series [2] came to 0.07%.
`CC1=CC(=O)NS(=O)(=O)O1.COC(=O)[C@H](Cc1ccccc1)NC(=O)[C@@H](N)CC(=O)O` [comp. exp. 1C, 1:1 salt of APM and acesulfamic acid] (H-Asp-Phe-OMe): the “Increase in DKP content” value in series [1] (1 hour, 120° C.) is on record as 2.04 wt. %; in series [1] (70 hours, 70° C.) it was 1.27 wt. %. The “thermal stability, observation in words” value in series [1] (1 hour, 120° C.) is given as “yellow/yellowbrown colour, with some degradation of the Ace part”; in series [1] (70 hours, 70° C.), “pale yellow; with hplc some degradation of the Ace part”. This molecule gave a DKP content in series [1] of 0.35 wt. %. For the same molecule, the moisture content in series [2] is listed as 0.76%; in series [2] (table 1) it was 0.76 wt. %.
For the molecule `CC1=CC(=O)NS(=O)(=O)O1.COC(=O)[C@H](Cc1ccccc1)NC(=O)[C@@H](N)CC(=O)O` [exp. 2a., 1:1 salt of APM and acesulfamic acid] (H-Asp-Phe-OMe), the “Increase in DKP content” value in series [1] (1 hour, 120° C.) was determined as 0 wt. %; in series [1] (70 hours, 70° C.), 0 wt. %. In series [1], this molecule registered a DKP content of 0.01 wt. %. Further, the Dissolution rate in series [5] (0.1 wt.% product, stirring) turned out to be 1 min. Moreover, the moisture content was found to be 0.11% in series [2] and 0.11 wt. % in series [2] (table 1).
With `CC1=CC(=O)NS(=O)(=O)O1.COC(=O)[C@H](Cc1ccccc1)NC(=O)[C@@H](N)CC(=O)O` [exp. 4a., 1:1 salt of APM and acesulfamic acid] (H-Asp-Phe-OMe), in series [1] (1 hour, 120° C.), the “Increase in DKP content” value amounted to 0 wt. % and the “thermal stability, observation in words” value is given as “fully stable, white product”. Further, in series [1], the DKP content worked out at 0.01 wt. %. This molecule gave a Dissolution rate in series [5] (0.1 wt.% product, stirring) of 1 min. The moisture content in series [2] stood at 0.12%. In addition, the moisture content in series [2] (table 1) turned out to be 0.12 wt. %.
Regarding `O=C1NS(=O)(=O)c2ccccc21` [SacH, 3-oxo-2,3-dihydro-1,2-benzisothiazole-1,1-dioxide], in series [1] (1 hour, 120° C.), the “thermal stability, observation in words” value is given as “stable”.
`COC(=O)[C@H](Cc1ccccc1)NC(=O)[C@@H](N)CC(=O)O.O=C1NS(=O)(=O)c2ccccc21` [comp. exp. 1B, 1:1 salt of APM and SacH] (H-Asp-Phe-OMe): in series [1] (70 hours, 70° C.), the “Increase in DKP content” value is recorded as 0 wt. %. The molecule further yielded a DKP content in series [1] of 0.21 wt. %.
